Test results taken from ChEMBL document CHEMBL1139211, “E/Z-rubrolide O, an anti-inflammatory halogenated furanone from the New Zealand ascidian Synoicum n. sp” (J Nat Prod, 2007).
The source made the active and inactive calls. The calls are words filed in the database; no cut-off is given here.

Legend:
HL-60 = test: Antiproliferative activity against HL60 cells by MTT assay; type: functional, cell-based; conditions: Homo sapiens
Neutrophil [1] = test: Inhibition of PMA-induced adhesion of neutrophils; type: functional, cell-based; conditions: Homo sapiens
Neutrophil [2] = test: Inhibition of superoxide production in human neutrophils; type: functional, cell-based
[3] = Viability of human neutrophils by trypan blue assay at 500 uM; type: functional, Neutrophil

IC50 (HL-60): 33 µM
IC50 (Neutrophil [2]): 35 µM
Structure (SMILES): O=C1O/C(=C\c2ccc(O)c(Br)c2)C(c2cc(Br)c(O)c(Br)c2)=C1Cl [RUBROLIDE O]
Activity (Neutrophil [1]): Active
Activity [3]: 87%
